Measurements from patent US10596223B2, “JNK inhibitor molecules for treatment of various diseases” (Xigen Inflammation Ltd., priority 2011, dated 2020).
Square brackets hold non-standard residues; d marks the D form. Ends that are not written are not given here. Peptide text beside a SMILES is read from it.

Legend:
hJNK1 = hJNK1 (Homo sapiens, UniProt P45983); assay: hJNK1 | IC50
Excerpt: (§1) Table printed on a drawing sheet, Fig. 2 Head of the field: hJNK1 | IC50 The patent's description of the figure: FIG. 2: Table illustrating the inhibitory efficacy of several JNK inhibitors (SEQ ID NOs: 193, 2, 3, 5, 6, and 7) according to the present invention. Given are the IC50 values in the nM range, the respective standard error of the mean and the number of experiments performed (n). First copying reader's note: The sheet prints no unit for IC50 and SEM; decimal commas are used and lower-case residue letters are as printed. Where the first naming reader finds the target: head: hJNK1

hJNK2 = hJNK2 (Homo sapiens, UniProt P45984); assay: hJNK2 | IC50
Chain of hJNK2 (P45984 whole entry, looked up): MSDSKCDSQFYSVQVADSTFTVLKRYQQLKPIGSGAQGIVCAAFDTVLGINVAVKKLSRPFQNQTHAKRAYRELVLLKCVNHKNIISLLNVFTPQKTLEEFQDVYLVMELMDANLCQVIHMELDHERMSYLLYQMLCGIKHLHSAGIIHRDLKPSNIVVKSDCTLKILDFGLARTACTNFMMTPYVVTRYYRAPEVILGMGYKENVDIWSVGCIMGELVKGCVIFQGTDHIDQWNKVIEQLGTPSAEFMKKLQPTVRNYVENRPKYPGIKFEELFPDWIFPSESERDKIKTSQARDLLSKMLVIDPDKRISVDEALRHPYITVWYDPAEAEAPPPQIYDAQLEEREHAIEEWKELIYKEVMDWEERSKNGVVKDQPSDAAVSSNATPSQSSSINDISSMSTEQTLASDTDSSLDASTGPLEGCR
Excerpt: as §1, with “hJNK2” for “hJNK1”

hJNK3 = hJNK3 (Homo sapiens, UniProt P53779); assay: hJNK3 | IC50
Chain of hJNK3 (P53779 whole entry, looked up): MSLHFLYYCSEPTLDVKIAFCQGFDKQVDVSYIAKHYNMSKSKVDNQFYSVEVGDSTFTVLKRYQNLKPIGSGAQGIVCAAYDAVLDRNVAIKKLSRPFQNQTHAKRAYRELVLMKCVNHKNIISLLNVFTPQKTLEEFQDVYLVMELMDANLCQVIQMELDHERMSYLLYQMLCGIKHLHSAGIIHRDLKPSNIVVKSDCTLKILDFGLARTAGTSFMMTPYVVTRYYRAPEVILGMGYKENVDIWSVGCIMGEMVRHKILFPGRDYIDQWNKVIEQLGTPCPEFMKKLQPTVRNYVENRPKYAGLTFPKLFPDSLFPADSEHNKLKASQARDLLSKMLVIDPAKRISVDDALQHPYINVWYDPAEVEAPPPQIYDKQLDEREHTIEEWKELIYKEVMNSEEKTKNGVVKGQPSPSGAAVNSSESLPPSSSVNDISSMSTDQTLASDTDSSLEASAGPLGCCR
Excerpt: as §1, with “hJNK3” for “hJNK1”

[1] = tested on: endotoxins-induced uveitis albino rat model; assay: Endotoxins induced uveitis (EIU), single intravenous injection, clinical scoring 24 hours after LPS; format: in vivo; set-up: key to clinical score of ocular inflammation, mean score (mean±SEM) / clinical score of ocular inflammation, median: ocular inflammation score per eye, 0 = none to 4 = intense (+1 fibrin); settings: 20 μg/eye sub-conjunctival, 24 hours after LPS
Procedure: FIG. 28 Clinical evaluation of administration of different amounts of the JNK inhibitor according to SEQ ID NO: 172 in albino rats after intravenous administration (endotoxins induced uveitis model). Form left to right: Vehicle, 0.015 mg/kg (i.v.) of SEQ ID NO: 172; 0.18 mg/kg (i.v.) of SEQ ID NO: 172; 1.8 mg/kg (i.v.) of SEQ ID NO: 172, 2 mg/kg (i.v.) of SEQ ID NO: 197 and 20 μg dexamethasone (administered directly by subconjunctival injection to the eye). Indicated is the clinical score (mean and the SEM).
The anti-inflammatory potency of the JNK inhibitor of SEQ ID NO: 172 was tested in albino rats following intravenous administration (EIU/LPS model). The aim of this study was to determine the effects of single intravenous injections of SEQ ID NO: 172 (0.015, 0.18, and 1.80 mg/kg) on the inflammatory response in an endotoxins-induced uveitis albino rat model and to compare these affects to those obtained with prior art JNK inhibitor of SEQ ID NO: 197 (2 mg/kg). As a further control served phosphate sodic dexamethasone.
Sixty (60) male Lewis rats were randomly divided into six (6) groups of ten (10) animals each. EIU was induced by footpad injection of lipopolysaccharide (LPS, 1 mg/kg). NaCl (0.9%), SEQ ID NO: 197 at 2 mg/kg and SEQ ID NO: 172 at three concentrations (1.80 mg/kg, 0.18 mg/kg and 0.015 mg/kg) were administered by intravenous injection. Phosphate sodic dexamethasone ([…]) was administered by sub-conjunctival injection in both eyes. 24 hours after LPS injection, inflammatory response was evaluated by clinical scoring.
The intensity of clinical ocular inflammation was scored on a scale from 0 to 4 for each eye: • Grade 0 no inflammation • Grade 1 slight iris and conjunctival vasodilation • Grade 2 moderate iris and conjunctival vasodilation with flare • Grade 3 intense iris and conjunctival vasodilation with flare • Grade 4 intense inflammatory reaction • (+1) fibrin formation and seclusion of pupils

[2] = Stability (half-life) in human serum, intact peptide by UPLC-MS; format: in vitro ADME; settings: human serum (50% in FIG. 5; 10 and 50% in PBS), 0.1 mM peptide
Procedure: FIG. 5: Stability of JNK inhibitors with SEQ ID NOs: 172, 196 and 197 in 50% human serum. The JNK inhibitor with SEQ ID NO: 196 was totally degraded into amino acids residues within 6 hours (A). The JNK inhibitor with SEQ ID NO: 172 was completely degraded only after 14 days (B). The JNK inhibitor with SEQ ID NO: 197 was stable at least up to 30 days (B).
The JNK inhibitors with the sequence of SEQ ID NOs: 196, 197, and 172 (0.1 mM final concentration) were digested in human serum (10 and 50% in PBS 1×). The experiment was performed as described by Tugyi et al. (Proc Natl Acad Sci USA, 2005, 413-418). The remaining intact peptide was quantified by UPLC-MS. Stability was assessed for SEQ ID NOs: 196, 197, and 172 identically but in two separate assays. While the JNK inhibitor with SEQ ID NO: 196 was totally degraded into amino acids residues within 6 hours, the JNK inhibitor with SEQ ID NO: 172 was completely degraded only after 14 days. The JNK inhibitor with SEQ ID NO: 197 was still stable after 30 days.

Hela cells = assay: Internalization of transporter constructs, 24 hours, fluorescence of cell extracts (FIG. 6); format: cell-based
Procedure: The transporter sequences analyzed correspond to SEQ ID NOs: 52-94 plus SEQ ID NOs: 45, 47, 46, 43 and 99 (FIG. 6a) and SEQ ID NOs: 100-147 (FIG. 6b). […] Hela cells were incubated 24 hours in 96 well plate with […] of the respective transporters. The cells were then washed twice with an acidic buffer (0.2M Glycin, 0.15M NaCl, pH 3.0) and twice with PBS. Cells were broken by the addition of RIPA lysis buffer. The relative amount of internalized peptide was then determined by reading the fluorescence intensity (Fusion Alpha plate reader; PerkinElmer) of each extract followed by background subtraction.
Hela cells were incubated 24 hours in 96 well plate with […] of the r3-L-TAT-derived transporters. The cells were then washed twice with an acidic buffer (0.2M Glycin, 0.15M NaCl, pH 3.0) and twice with PBS. Cells were broken by the addition of RIPA lysis buffer. The relative amount of internalized peptide was then determined by reading the fluorescence intensity (Fusion Alpha plate reader; PerkinElmer) of each extract followed by background subtraction

Chain of hJNK1 (P45983 whole entry, looked up): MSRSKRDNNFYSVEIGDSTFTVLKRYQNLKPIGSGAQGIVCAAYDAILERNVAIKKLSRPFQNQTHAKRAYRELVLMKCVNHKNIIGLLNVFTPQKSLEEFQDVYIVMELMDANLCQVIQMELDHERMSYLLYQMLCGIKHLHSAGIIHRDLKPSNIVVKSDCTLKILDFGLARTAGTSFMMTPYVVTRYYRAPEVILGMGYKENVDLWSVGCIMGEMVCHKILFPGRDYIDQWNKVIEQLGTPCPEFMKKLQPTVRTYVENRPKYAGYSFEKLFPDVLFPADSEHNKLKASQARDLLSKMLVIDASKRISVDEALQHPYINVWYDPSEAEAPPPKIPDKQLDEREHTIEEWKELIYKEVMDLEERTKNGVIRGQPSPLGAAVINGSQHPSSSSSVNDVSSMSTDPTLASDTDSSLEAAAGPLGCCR

Compound | IC50 (hJNK1) [nM] | IC50 (hJNK2) [nM] | IC50 (hJNK3) [nM] | other results
CC(C)C[C@H](NC(=O)[C@H](CC(N)=O)NC(=O)[C@H](CC(C)C)NC(=O)[C@@H](NC(=O)[C@@H](NC(=O)[C@@H]1CCCN1C(=O)[C@H](CCCNC(=N)N)NC(=O)[C@@H](CCCCN)NC(=O)[C@@H]1CCCN1C(=O)[C@@H](N)CCCNC(=N)N)[C@@H](C)O)[C@@H](C)O)C(=O)N[C@@H](Cc1ccccc1)C(N)=O [SEQ ID NO: 3] (H-RP[dK]RPTTLNLF-NH2) | 312 | 1210 | 359 | 
CC(C)C[C@H](NC(=O)[C@@H](NC(=O)[C@@H](NC(=O)[C@@H]1CCCN1C(=O)[C@H](CCCNC(=N)N)NC(=O)[C@H](CCCCN)NC(=O)[C@@H]1CCCN1C(=O)[C@@H](N)CCCNC(=N)N)[C@@H](C)O)[C@@H](C)O)C(=O)N[C@H](CC(N)=O)C(=O)N[C@@H](CC(C)C)C(=O)N[C@@H](Cc1ccccc1)C(N)=O [SEQ ID NO: 5] (H-RPKRPTTL[dN]LF-NH2) | 348 |  | 387 | 
H-RPKRPTTLNLF-NH2 [SEQ ID NO: 193] | 39.5 | 184 | 67.7 | 
CC(C)C[C@H](NC(=O)[C@@H](NC(=O)[C@@H](NC(=O)[C@@H]1CCCN1C(=O)[C@H](CCCNC(=N)N)NC(=O)[C@H](CCCCN)NC(=O)[C@@H]1CCCN1C(=O)[C@@H](N)CCCNC(=N)N)[C@@H](C)O)[C@@H](C)O)C(=O)N[C@H](CCCNC(=N)N)C(=O)N[C@@H](CC(C)C)C(=O)N[C@@H](Cc1ccccc1)C(N)=O [SEQ ID NO: 6] (H-RPKRPTTL[dR]LF-NH2) | 90.5 | 359 | 120 | 
C[C@@H]1C[C@H]2[C@@H]3CCC4=CC(=O)C=C[C@]4(C)[C@@]3(F)[C@@H](O)C[C@]2(C)[C@@]1(O)C(=O)CO [dexamethasone, reference compound] |  |  |  | clinical score of ocular inflammation, mean score (mean±SEM) [1]: 0.8±0.2; clinical score of ocular inflammation, median [1]: 0.5
CC(C)C[C@H](NC(=O)[C@H](CC(N)=O)NC(=O)[C@H](CC(C)C)NC(=O)[C@@H](NC(=O)[C@@H](NC(=O)[C@@H]1CCCN1C(=O)[C@H](CCCNC(=N)N)NC(=O)[C@H](CCCCN)NC(=O)[C@@H]1CCCN1C(=O)[C@@H](N)CCCNC(=N)N)[C@@H](C)O)[C@@H](C)O)C(=O)N[C@H](Cc1ccccc1)C(N)=O [SEQ ID NO: 7] (H-RPKRPTTLNL[dF]-NH2) |  | 278 | 89 | 
GRKKRRQRRRPPRPKRPTTLNLFPQVPRSQD [SEQ ID NO: 196, reference compound] |  |  |  | totally degraded into amino acids residues within [2]: ≤ 6 h
rYKRrQRRr ([dR]YKR[dR]QRR[dR]) [SEQ ID NO: 142] |  |  |  | transporter activity (Y in position 2) (Hela cells): highest transporter activity
CC(C)C[C@H](NC(=O)[C@H](CC(N)=O)NC(=O)[C@H](CC(C)C)NC(=O)[C@@H](NC(=O)[C@@H](NC(=O)[C@@H]1CCCN1C(=O)[C@H](CCCNC(=N)N)NC(=O)[C@H](CCCCN)NC(=O)[C@@H]1CCCN1C(=O)[C@H](N)CCCNC(=N)N)[C@@H](C)O)[C@@H](C)O)C(=O)N[C@@H](Cc1ccccc1)C(N)=O [SEQ ID NO: 2] (H-[dR]PKRPTTLNLF-NH2) |  | 424 | 103 | 
